{"source": "PubChem BioAssay AID2351", "about": "(The Scripps Research Institute Molecular Screening Center, 2010)", "molecular_target": "Sphingosine 1-phosphate receptor 1 (Homo sapiens) (UniProt P21453)", "sequence (P21453 whole entry, looked up)": "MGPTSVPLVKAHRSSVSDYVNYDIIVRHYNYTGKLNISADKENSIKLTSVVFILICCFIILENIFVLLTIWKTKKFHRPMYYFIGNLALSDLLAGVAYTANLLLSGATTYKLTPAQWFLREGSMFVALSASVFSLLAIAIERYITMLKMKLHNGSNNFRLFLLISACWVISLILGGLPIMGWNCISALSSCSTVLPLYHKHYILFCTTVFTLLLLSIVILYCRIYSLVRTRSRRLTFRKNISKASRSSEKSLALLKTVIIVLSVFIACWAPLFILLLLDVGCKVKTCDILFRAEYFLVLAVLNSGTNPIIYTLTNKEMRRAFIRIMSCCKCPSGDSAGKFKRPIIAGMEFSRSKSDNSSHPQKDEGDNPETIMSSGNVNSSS", "test": "PubChem AID 2351", "settings": "S1P1-expressing cells, fluorescence antagonist assay", "note": "Activity calls are given as the source filed them. How the calls were made is not given here."}
{"smiles": "Cc1cccc(C)c1NC(=O)c1ccc(-c2cc(Cl)ccc2Cl)o1", "values": [{"measurement": "IC50", "result": "> 25 µM (inactive)"}]}
